# Active and inactive are the calls of the source. The calls are words filed in the database; no cut-off is given here.
# Experiments:
# T-24 [1] = assay: Potency index, ratio of oxoaporphine IC50 to test compound IC50 for anticancer activity against human T24 cells; type: functional
# T-24 [2] = assay: Induction of apoptosis in human T24 cells assessed as increase in caspase 9 activity at 1 uM (Rvb= 7.2%); type: functional
# T-24 [3] = assay: Induction of apoptosis in human T24 cells assessed as increase in caspase 3 activity at 1 uM (Rvb= 3.1%); type: functional
# T-24 [4] = assay: Induction of apoptosis in human T24 cells assessed as increase in caspase 3 activity at 0.5 uM (Rvb= 3.1%); type: functional
# T-24 [5] = assay: Induction of cell cycle arrest in human T24 cells assessed as accumulation of cells at G1 phase at 0.5 uM incubated for 24 hrs by propidium iodide/RNase A staining based flow cytometry analysis (reference value: 51.71 %); type: functional
# T-24 [6] = assay: Induction of ROS generation in human T24 cells at 0.5 uM by fluorescence microscopy; type: functional, cell-based
# T-24 [7] = assay: Induction of mitochondrial Ca2+ production in human T24 cells assessed as increase in intracellular Ca2+ concentration at 0.5 uM by Rhod2-AM staining based fluorescence microscopic method; type: functional, cell-based
# T-24 [8] = assay: Induction of Ca2+ production in human T24 cells assessed as increase in intracellular Ca2+ concentration at 0.5 uM by Fluo3-AM staining based fluorescence microscopic method; type: functional, cell-based
# T-24 [9] = assay: Induction of mitochondrial membrane potential dysfunction in human T24 cells assessed as increase in fragmentation at 0.5 uM incubated for 24 hrs by TEM analysis; type: functional, cell-based
# T-24 [10] = assay: Induction of apoptosis in human T24 cells assessed as necrotic cells at 0.5 uM incubated for 24 hrs by Annexin-V/PI staining based flow cytometry analysis (reference value: 1.92 %); type: functional
# T-24 [11] = assay: Induction of mitochondrial mediated apoptosis in human T24 cells assessed as upregulation of apaf-1 expression at 0.5 to 1 uM incubated for 24 hrs by Western blotting analysis; type: functional, cell-based; conditions: dose 0.5-1 µM
# T-24 [12] = assay: Induction of apoptosis in human T24 cells assessed as viable cells at 1 uM incubated for 24 hrs by Annexin-V/PI staining based flow cytometry analysis (reference value: 94.3 %); type: functional; conditions: read-out: Activity
# T-24 [13] = assay: Induction of mitochondrial membrane potential dysfunction in human T24 cells assessed as shrinking mitochondria at 10 uM incubated for 24 hrs by TEM analysis; type: functional, cell-based
# T-24 [14] = assay: Induction of cell cycle arrest in human T24 cells assessed as accumulation of cells at S phase at 15 uM incubated for 24 hrs by propidium iodide/RNase A staining based flow cytometry analysis (reference value: 42.47 %); type: functional
# T-24 [15] = assay: Induction of mitochondrial mediated apoptosis in human T24 cells assessed as decrease in Bcl-2 protein expression at 10 to 15 uM incubated for 24 hrs by Western blotting analysis; type: functional, cell-based; conditions: dose 10-15 µM
# T-24 [16] = assay: Induction of apoptosis in human T24 cells assessed as early apoptotic cells at 15 uM incubated for 24 hrs by Annexin-V/PI staining based flow cytometry analysis (reference value: 3.27 %); type: functional
# T-24 [17] = assay: Induction of apoptosis in human T24 cells assessed as viable cells at 10 uM incubated for 24 hrs by Annexin-V/PI staining based flow cytometry analysis (reference value: 94.3 %); type: functional; conditions: read-out: Activity
# T-24 [18] = assay: Induction of cell cycle arrest in human T24 cells assessed as accumulation of cells at G1 phase at 15 uM incubated for 24 hrs by propidium iodide/RNase A staining based flow cytometry analysis (reference value: 51.71 %); type: functional
# T-24 [19] = assay: Induction of apoptosis in human T24 cells assessed as increase in caspase 9 activity at 10 uM (Rvb= 7.2%); type: functional
# T-24 [20] = assay: Induction of apoptosis in human T24 cells assessed as increase in caspase 9 activity at 15 uM (Rvb= 7.2%); type: functional
# T-24 [21] = assay: Induction of apoptosis in human T24 cells assessed as viable cells at 20 uM incubated for 24 hrs by Annexin-V/PI staining based flow cytometry analysis (reference value: 94.3 %); type: functional; conditions: read-out: Activity
# T-24 [22] = assay: Induction of cell cycle arrest in human T24 cells assessed as increase in Cyclin B expression at 10 to 15 uM incubated for 24 hrs by chemiluminescence based Western blotting analysis; type: functional; conditions: dose 10-15 µM, DDE = dose-dependent effect
# T-24 [23] = assay: Induction of mitochondrial mediated apoptosis in human T24 cells assessed as upregulation of apaf-1 expression at 10 to 15 uM incubated for 24 hrs by Western blotting analysis; type: functional, cell-based; conditions: dose 10-15 µM
# T-24 [24] = assay: Induction of DNA damage in human T24 cells assessed as increase in gamma H2AX expression at 10 to 15 uM incubated for 24 hrs by Western blot analysis; type: functional, cell-based; conditions: dose 10-15 µM
# T-24 [25] = assay: Induction of DNA damage in human T24 cells assessed as increase in […] p53 expression at 2 to 4 uM incubated for 24 hrs by Western blot analysis; type: functional, cell-based; conditions: dose 2-4 µM
# T-24 [26] = assay: Induction of mitochondrial Ca2+ production in human T24 cells assessed as increase in intracellular Ca2+ concentration at 2 uM by Rhod2-AM staining based fluorescence microscopic method; type: functional, cell-based
# T-24 [27] = assay: Induction of cell cycle arrest in human T24 cells assessed as upregulation of CDK2 expression at 2 to 4 uM incubated for 24 hrs by chemiluminescence based Western blotting analysis; type: functional; conditions: dose 2-4 µM
# T-24 [28] = assay: Induction of mitochondrial membrane potential dysfunction in human T24 cells assessed as increase in fragmentation at 2 uM incubated for 24 hrs by TEM analysis; type: functional, cell-based
# T-24 [29] = assay: Induction of mitochondrial ROS generation in human T24 cells at 2 uM measured after 24 hrs by Mitotracker Red dye based confocal microscopy method; type: functional, cell-based
# T-24 [30] = assay: Induction of mitochondrial membrane potential dysfunction in human T24 cells assessed as mitochondrial fragment condensation at 2 to 4 uM by mito-tracker green dye based fluorescence microscopy; type: functional, cell-based; conditions: dose 2-4 µM
# T-24 [31] = assay: Induction of apoptosis in human T24 cells assessed as increase in caspase 9 activity at 4 uM (Rvb= 7.2%); type: functional
# T-24 [32] = assay: Induction of apoptosis in human T24 cells assessed as early apoptotic cells at 6 uM incubated for 24 hrs by Annexin-V/PI staining based flow cytometry analysis (reference value: 3.27 %); type: functional
# T-24 [33] = assay: Induction of cell cycle arrest in human T24 cells assessed as accumulation of cells at S phase at 2 uM incubated for 24 hrs by propidium iodide/RNase A staining based flow cytometry analysis (reference value: 42.47 %); type: functional
# T-24 [34] = assay: Induction of apoptosis in human T24 cells assessed as early apoptotic cells at 4 uM incubated for 24 hrs by Annexin-V/PI staining based flow cytometry analysis (reference value: 3.27 %); type: functional
# T-24 [35] = assay: Induction of mitochondrial membrane potential dysfunction in human T24 cells assessed as change in morphology at 2 to 4 uM by Mitotracker green dye based fluorescence microscopy; type: functional, cell-based; conditions: dose 2-4 µM
# T-24 [36] = assay: Induction of apoptosis in human T24 cells assessed as contracted small fragmented nuclei at 2 uM by Hoechst33258 staining based fluorescence microscopy; type: functional, cell-based
# T-24 [37] = assay: Induction of apoptosis in human T24 cells assessed as necrotic cells at 4 uM incubated for 24 hrs by Annexin-V/PI staining based flow cytometry analysis (reference value: 1.92 %); type: functional
compound,measurement,setting,value
O=C1c2ccccc2-c2ccc([N+](=O)[O-])c3ccnc1c23,Ratio IC50,T-24 [1],19
same,Activity,T-24 [2],53.6%
same,Activity,T-24 [3],38.8%
same,Activity,T-24 [4],30.6%
same,Activity,T-24 [5],0.58%
same,Activity,T-24 [6],Active
same,Activity,T-24 [7],Active
same,Activity,T-24 [8],Active
same,Activity,T-24 [9],Active
same,Activity,T-24 [10],1.54%
same,Activity,T-24 [11],Active
same,viability at 1 µM,T-24 [12],52.6%
O=C1c2ccccc2-c2cccc3ccnc1c23,Activity,T-24 [13],Active
same,Activity,T-24 [14],46.29%
same,Activity,T-24 [15],Active
same,Activity,T-24 [16],32.9%
same,viability at 10 µM,T-24 [17],79.1%
same,Activity,T-24 [18],31.02%
same,Activity,T-24 [19],24.8%
same,Activity,T-24 [20],26.3%
same,viability at 20 µM,T-24 [21],56.2%
same,Activity,T-24 [22],Dde
same,Activity,T-24 [23],Active
same,Activity,T-24 [24],Active
O=C1c2cc([N+](=O)[O-])ccc2-c2ccc([N+](=O)[O-])c3ccnc1c23,Activity,T-24 [25],Active
same,Activity,T-24 [26],Active
same,Activity,T-24 [27],Active
same,Activity,T-24 [28],Active
same,Activity,T-24 [29],Active
same,Activity,T-24 [30],Active
same,Activity,T-24 [31],28.9%
same,Activity,T-24 [32],36.2%
same,Activity,T-24 [33],66.71%
same,Activity,T-24 [34],32.3%
same,Activity,T-24 [35],Active
same,Activity,T-24 [36],Active
same,Activity,T-24 [37],2.8%
